This note sets out measurements from patent publication US20230203026A1, “PESTICIDAL COMPOSITIONS AND METHODS” (CORTEVA AGRISCIENCE LLC, priority 2017, published 2023).

Molecules are shown by their SMILES.

Experiment [1] has as its system beet armyworm (Spodoptera exigua, LAPHEG) ("BAW"). The experiment can be described thus: Insecticidal test for beet armyworm, 128-well diet tray assay. It is filed as in vivo. Particulars: 168 h, 50 μg/cm^2 of test compound on artificial diet, second instar BAW larvae, 25° C., five to seven days, average of eight wells, read-out: BAW % Control (or Mortality) rating. The protocol:
Insecticidal test for beet armyworm (Spodoptera exigua, LAPHEG) (“BAW”)
(§1) Bioassays on beet armyworm (BAW; Spodoptera exigua: Lepidoptera) are conducted using a 128-well diet tray assay. One to five second instar BAW larvae are placed in each well (3 mL) of the diet tray that had been previously filled with 1 mL of artificial diet to which 50 μg/cm^2 of the test compound (dissolved in 50 μL of 90:10 acetone-water mixture) had been applied (to each of eight wells) and then allowed to dry. Trays are covered with a clear self-adhesive cover, vented to allow gas exchange, and held at 25° C., 14:10 light-dark for five to seven days. Percent mortality is recorded for the larvae in each well; activity in the eight wells is then averaged.

The test system of experiment [2] is Cabbage Looper (Trichloplusia ni, TRIPNI) ("CL"). Kind of experiment: Insecticidal test for cabbage looper, 128-well diet tray assay. It is filed as in vivo. Particulars: Trichoplusia ni, 168 h; 50 μg/cm^2 of test compound on artificial diet; second instar CL larvae; 25° C.; five to seven days; average of eight wells; read-out: CL % Control (or Mortality) rating. The protocol: Insecticidal Test for Cabbage Looper (Trichloplusia ni, TRIPNI) (“CL”)
as §1, with “cabbage looper (CL; Trichloplusia ni:” for “beet armyworm (BAW; Spodoptera exigua:”, “CL” for “BAW”

The mortality is the share of the test organisms that died. With `Cc1ccc(C(C)C)c(N2C(=O)CS/C2=N\C(=O)NN(C)C(C)c2ccc(-c3ncn(-c4ccc(OC(F)(F)F)cc4)n3)cc2)c1` (centres unmarked) [A3, (Z)—N-(3-(2-isopropyl-5-methylphenyl)-4-oxothiazolidin-2-ylidene)-2-methyl-2-(1-(4-(1-(4-(trifluoromethoxy)phenyl)-1H-1,2,4-triazol-3-yl)phenyl)ethyl)hydrazine-1-carboxamide], the mortality at 50 µg/cm2 in experiment [1] and in experiment [2] was 50 to 100% in each case.
As for `Cc1ccc(C(C)C)c(N2C(=O)CS/C2=N\C(=O)NN(C)Cc2ccc(-c3ncn(-c4ccc(OC(F)(F)F)cc4)n3)cc2)c1` [A4, (Z)—N-(3-(2-isopropyl-5-methylphenyl)-4-oxothiazolidin-2-ylidene)-2-methyl-2-(4-(1-(4-(trifluoromethoxy)phenyl)-1H-1,2,4-triazol-3-yl)benzyl)hydrazine-1-carboxamide], the mortality at 50 µg/cm2 in experiment [1] and in experiment [2] was 50 to 100% throughout.
In the case of `CC(NNC(=O)/N=C1\SCC(=O)N1c1cc(Cl)ccc1OC(F)(F)F)c1ccc(-c2ncn(-c3ccc(OC(F)(F)F)cc3)n2)cc1` (centres unmarked) [A5, (Z)—N-(3-(5-chloro-2-(trifluoromethoxy)phenyl)-4-oxothiazolidin-2-ylidene)-2-(1-(4-(1-(4-(trifluoromethoxy)phenyl)-1H-1,2,4-triazol-3-yl)phenyl)ethyl)hydrazine-1-carboxamide], the mortality at 50 µg/cm2 in experiment [1] and in experiment [2] was 50 to 100% throughout.
Take `Cc1ccc(OCC(F)(F)F)c(N2C(=O)CS/C2=N\C(=O)NNC(C)c2ccc(-c3ncn(-c4ccc(OC(F)(F)F)cc4)n3)cc2)c1` (centres unmarked) [A6, (Z)—N-(3-(5-Methyl-2-(2,2,2-trifluoroethoxy)phenyl)-4-oxothiazolidin-2-ylidene)-2-(1-(4-(1-(4-(trifluoromethoxy)phenyl)-1H-1,2,4-triazol-3-yl)phenyl)ethyl)hydrazine-1-carboxamide]: the mortality at 50 µg/cm2 in experiment [1] and in experiment [2] was 50 to 100% in each case.
As to `CC(C)c1ccc(Cl)cc1N1C(=O)CS/C1=N\C(=O)NNC(C)c1ccc(-c2ncn(-c3ccc(OC(F)(F)F)cc3)n2)cc1` (centres unmarked) [A8, (Z)—N-(3-(5-Chloro-2-isopropylphenyl)-4-oxothiazolidin-2-ylidene)-2-(1-(4-(1-(4-(trifluoromethoxy)phenyl)-1H-1,2,4-triazol-3-yl)phenyl)ethyl)hydrazine-1-carboxamide], the mortality at 50 µg/cm2 in experiment [1] and in experiment [2] was 50 to 100% each time.
Regarding `Cc1ccc(C(C)C)c(N2C(=O)CS/C2=N\C(=O)NNC(C)c2ccc(-c3ncn(-c4ccc(OC(F)(F)F)cc4)n3)cc2)c1` (centres unmarked) [A9, (Z)—N-(3-(2-Isopropyl-5-methylphenyl)-4-oxothiazolidin-2-ylidene)-2-(1-(4-(1-(4-(trifluoromethoxy)phenyl)-1H-1,2,4-triazol-3-yl)phenyl)ethyl)hydrazine-1-carboxamide], the mortality at 50 µg/cm2 in experiment [1] and in experiment [2] was 50 to 100% in each case.
For the compound `CCCc1ccc(C)cc1N1C(=O)CS/C1=N\C(=O)NOCc1ccc(-c2ncn(-c3ccc(OC(F)(F)F)cc3)n2)cc1` [A10, (Z)-1-(3-(5-methyl-2-propylphenyl)-4-oxothiazolidin-2-ylidene)-3-((4-(1-(4-(trifluoromethoxy)phenyl)-1H-1,2,4-triazol-3-yl)benzyl)oxy)urea], the mortality at 50 µg/cm2 in experiment [1] and in experiment [2] was 50 to 100% each time.
As for `Cc1ccc(Cl)c(N2C(=O)CS/C2=N\C(=O)NOC(C)c2ccc(-c3ncn(-c4ccc(OC(F)(F)F)cc4)n3)cc2)c1` (centres unmarked) [A11, (Z)-1-(3-(2-Chloro-5-methylphenyl)-4-oxothiazolidin-2-ylidene)-3-(1-(4-(1-(4-(trifluoromethoxy)phenyl)-1H-1,2,4-triazol-3-yl)phenyl)ethoxy)urea], the mortality at 50 µg/cm2 in experiment [1] and in experiment [2] was 50 to 100% throughout.
For the compound `CCCc1ccc(C)cc1N1C(=O)CS/C1=N\C(=O)NOC(C)c1ccc(-c2ncn(-c3ccc(OC(F)(F)F)cc3)n2)cc1` (centres unmarked) [A12, (Z)-1-(3-(5-Methyl-2-propylphenyl)-4-oxothiazolidin-2-ylidene)-3-(1-(4-(1-(4-(trifluoromethoxy)phenyl)-1H-1,2,4-triazol-3-yl)phenyl)ethoxy)urea], the mortality at 50 µg/cm2 in experiment [1] and in experiment [2] was 50 to 100% each time.
As to `Cc1ccc(C(F)(F)F)c(N2C(=O)CS/C2=N\C(=O)NOC(C)c2ccc(-c3ncn(-c4ccc(OC(F)(F)F)cc4)n3)cc2)c1` (centres unmarked) [A13, (Z)-1-(3-(5-Methyl-2-(trifluoromethyl)phenyl)-4-oxothiazolidin-2-ylidene)-3-(1-(4-(1-(4-(trifluoromethoxy)phenyl)-1H-1,2,4-triazol-3-yl)phenyl)ethoxy)urea], the mortality at 50 µg/cm2 in experiment [1] and in experiment [2] was 50 to 100% each time.
For `COc1ccc(C(C)C)c(N2C(=O)CS/C2=N\C(=O)NOC(C)c2ccc(-c3ncn(-c4ccc(OC(F)(F)F)cc4)n3)cc2)c1` (centres unmarked) [A14, (Z)-1-(3-(2-Isopropyl-5-methoxyphenyl)-4-oxothiazolidin-2-ylidene)-3-(1-(4-(1-(4-(trifluoromethoxy)phenyl)-1H-1,2,4-triazol-3-yl)phenyl)ethoxy)urea], the mortality at 50 µg/cm2 in experiment [1] and in experiment [2] was 50 to 100% throughout.
For `CCCc1ccc(OC)cc1N1C(=O)CS/C1=N\C(=O)NOC(C)c1ccc(-c2ncn(-c3ccc(OC(F)(F)F)cc3)n2)cc1` (centres unmarked) [A15, (Z)-1-(3-(5-Methoxy-2-propylphenyl)-4-oxothiazolidin-2-ylidene)-3-(1-(4-(1-(4-(trifluoromethoxy)phenyl)-1H-1,2,4-triazol-3-yl)phenyl)ethoxy)urea], the mortality at 50 µg/cm2 in experiment [1] and in experiment [2] was 50 to 100% throughout.
`COCc1ccc(C)cc1N1C(=O)CS/C1=N\C(=O)NOC(C)c1ccc(-c2ncn(-c3ccc(OC(F)(F)F)cc3)n2)cc1` (centres unmarked) [A16, (Z)-1-(3-(2-(Methoxymethyl)-5-methylphenyl)-4-oxothiazolidin-2-ylidene)-3-(1-(4-(1-(4-(trifluoromethoxy)phenyl)-1H-1,2,4-triazol-3-yl)phenyl)ethoxy)urea]: the mortality at 50 µg/cm2 in experiment [1] and in experiment [2] was 50 to 100% in each case.
Turning to `Cc1ccc(C(C)C)c(N2C(=O)CS/C2=N\C(=O)NOC(C)c2ccc(-c3ncn(-c4ccc(OC(F)(F)F)cc4)n3)cc2)c1` (centres unmarked) [A17, (Z)-1-(3-(2-Isopropyl-5-methylphenyl)-4-oxothiazolidin-2-ylidene)-3-(1-(4-(1-(4-(trifluoromethoxy)phenyl)-1H-1,2,4-triazol-3-yl)phenyl)ethoxy)urea], the mortality at 50 µg/cm2 in experiment [1] and in experiment [2] was 50 to 100% in each case.
Consider `CC(C)c1ccccc1N1C(=O)CS/C1=N\C(=O)NOC(C)c1ccc(-c2ncn(-c3ccc(OC(F)(F)F)cc3)n2)cc1` (centres unmarked) [A18, (Z)-1-(3-(2-Isopropylphenyl)-4-oxothiazolidin-2-ylidene)-3-(1-(4-(1-(4-(trifluoromethoxy)phenyl)-1H-1,2,4-triazol-3-yl)phenyl)ethoxy)urea], for which the mortality at 50 µg/cm2 in experiment [1] and in experiment [2] was 50 to 100% in each case.
With `Cc1ccc(OCC(F)(F)F)c(N2C(=O)CS/C2=N\C(=O)NOC(C)c2ccc(-c3ncn(-c4ccc(OC(F)(F)F)cc4)n3)cc2)c1` (centres unmarked) [A19, (Z)-1-(3-(5-Methyl-2-(2,2,2-trifluoroethoxy)phenyl)-4-oxothiazolidin-2-ylidene)-3-(1-(4-(1-(4-(trifluoromethoxy)phenyl)-1H-1,2,4-triazol-3-yl)phenyl)ethoxy)urea], the mortality at 50 µg/cm2 in experiment [1] and in experiment [2] was 50 to 100% each time.
As for `CC(ONC(=O)/N=C1\SCC(=O)N1c1cc(Cl)ccc1OCC(F)(F)F)c1ccc(-c2ncn(-c3ccc(OC(F)(F)F)cc3)n2)cc1` (centres unmarked) [A20, (Z)-1-(3-(5-Chloro-2-(2,2,2-trifluoroethoxy)phenyl)-4-oxothiazolidin-2-ylidene)-3-(1-(4-(1-(4-(trifluoromethoxy)phenyl)-1H-1,2,4-triazol-3-yl)phenyl)ethoxy)urea], the mortality at 50 µg/cm2 in experiment [1] and in experiment [2] was 50 to 100% throughout.
With `CC(C)c1ccc(Cl)cc1N1C(=O)CS/C1=N\C(=O)NOC(C)c1ccc(-c2ncn(-c3ccc(OC(F)(F)F)cc3)n2)cc1` (centres unmarked) [A21, (Z)-1-(3-(5-Chloro-2-isopropylphenyl)-4-oxothiazolidin-2-ylidene)-3-(1-(4-(1-(4-(trifluoromethoxy)phenyl)-1H-1,2,4-triazol-3-yl)phenyl)ethoxy)urea], the mortality at 50 µg/cm2 in experiment [1] and in experiment [2] was 50 to 100% throughout.
As for `Cc1ccc(Cl)c(N2C(=O)CS/C2=N\C(=O)NOCc2ccc(-c3ncn(-c4ccc(OC(F)(F)F)cc4)n3)cc2)c1` [A22, (Z)-1-(3-(2-Chloro-5-methylphenyl)-4-oxothiazolidin-2-ylidene)-3-((4-(1-(4-(trifluoromethoxy)phenyl)-1H-1,2,4-triazol-3-yl)benzyl)oxy)urea], the mortality at 50 µg/cm2 in experiment [1] and in experiment [2] was 50 to 100% each time.
